Data published in patent US20210252011A1, “TREATMENT OF GLIOBLASTOMA WITH FASN INHIBITORS” (FORMA Therapeutics, Inc., priority 2017, published 2021).

What was measured:
FASN enzyme = target: T1, FASN enzyme (Homo sapiens, UniProt P49327); experiment: Enzymatic assay for FASN inhibitors; assay type: biochemical; details: 40 nM FASN enzyme, 25° C.
T1 construct: incubated with 10 μL of 40 nM FASN enzyme in assay buffer
Procedure: Assays were performed in a 384-well black plate to measure the inhibition of FASN activity by individual compounds disclosed herein. An aliquot of 250 nL of compound was incubated with 10 μL of 40 nM FASN enzyme in assay buffer (50 mM HEPES (pH=7.3), 0.5 mM EDTA, 1 mM ascorbate, 100 mM sodium chloride and 0.04% TritonX-100) in each well at 25° C. for 60 minutes. After the plate was centrifuged briefly, 10 μL of substrate mix (20 μM acetyl-CoA, 60 μM malonyl-CoA, and 100 μM NADPH in assay buffer) was added to each well. The reaction was maintained at 25° C. for 90 minutes. The reaction was then quenched by adding 10 μL of 90 μM 7-diethylamino-3-(4′-maleimidylpheynyl)-4-methylcoumarin in 50/50 ethanol/water solution. The assay plate was incubated at 25° C. for 15 minutes and read on a plate reader with excitation and emission wavelengths at 360 nm and 530 nm, respectively. The IC50 of a given compound was calculated by fitting the dose response curve with a four-parameter logistic equation. Data shown below in Table B, where compounds having an activity designated as “A” provided an IC50<100 nm and compounds having an activity designated as “B” provided an IC50 of 100 nm-1.00 μM.

[1] = Determination of brain exposure in Balb/c nude mice following oral administration; assay type: in vivo; details: 5 mg/kg oral gavage; for Brain (μM) at 2 h / Plasma (μM) at 2 h / [Brain]/[Plasma] at 2 h: 2 h post dose; for Brain (μM) at 8 h / Plasma (μM) at 8 h / [Brain]/[Plasma] at 8 h: 8 h post dose; for Brain (μM) at 2, 8 h (single value) / Plasma (μM) at 2, 8 h (single value) / Kp: one value given, time point (2 or 8 h) not stated; for Kp: mouse, brain/plasma, read-out: [Brain]/[Plasma] at 2, 8 h (single value)
Procedure: Balb/c nude mice (body weight: 20-30 g; age range: approximately 6-8 weeks) were purchased from a qualified provider and acclimated for 5-7 days. The dosing formulation (dose: 5 mg/kg; concentration: 0.5 mg/mL; vehicle: PEG400:ethanol (v/v 9:1)) was prepared on the day of dosing and administered via oral gavage (dose volume: 10 mL/kg) to the mice (n=3 animals per time point). At the desired time point (2 or 8 h post dose) approximately 0.03 mL of blood sample was collected via venipuncture of peripheral veins into Heparin Na tubes and immediately placed on ice. After gently reverting the tube for approximately 10 seconds, the blood sample was centrifuged at 4,000×g for 5 minutes at 4° C. Supernatant was transferred into a micro-centrifuge tube and kept in a −80° C. freezer. Prior to brain collection, mice were fully exsanguinated via the following procedure: the chest cavity was opened, the ventricle was cut and a gentle iv saline flush (saline flush volume ˜20 mL) was performed with the animal placed head down at a 45 degree angle to facilitate blood removal. Brain samples were collected at the desired time point (2 or 8 h post dose), quick frozen in an ice box, and kept at −75±15° C. All brain samples were weighed and homogenated with buffer (brain weight (g) to PBS volume (mL) ratio of 1:4) before analysis. The actual concentration is the detected value multiplied by the dilution factor. For plasma sample analysis, plasma samples were quantified against a standard curve in plasma of Balb/c nude mice using an LC-MS/MS Method. For brain sample analysis, brain samples were quantified against a standard curve in brain homogenate of Balb/c nude mice using an LC-MS/MS Method. Each standard curve covered at least 6 calibration points including lower limit of quantification (LLOQ).

T1 sequence (P49327 whole entry): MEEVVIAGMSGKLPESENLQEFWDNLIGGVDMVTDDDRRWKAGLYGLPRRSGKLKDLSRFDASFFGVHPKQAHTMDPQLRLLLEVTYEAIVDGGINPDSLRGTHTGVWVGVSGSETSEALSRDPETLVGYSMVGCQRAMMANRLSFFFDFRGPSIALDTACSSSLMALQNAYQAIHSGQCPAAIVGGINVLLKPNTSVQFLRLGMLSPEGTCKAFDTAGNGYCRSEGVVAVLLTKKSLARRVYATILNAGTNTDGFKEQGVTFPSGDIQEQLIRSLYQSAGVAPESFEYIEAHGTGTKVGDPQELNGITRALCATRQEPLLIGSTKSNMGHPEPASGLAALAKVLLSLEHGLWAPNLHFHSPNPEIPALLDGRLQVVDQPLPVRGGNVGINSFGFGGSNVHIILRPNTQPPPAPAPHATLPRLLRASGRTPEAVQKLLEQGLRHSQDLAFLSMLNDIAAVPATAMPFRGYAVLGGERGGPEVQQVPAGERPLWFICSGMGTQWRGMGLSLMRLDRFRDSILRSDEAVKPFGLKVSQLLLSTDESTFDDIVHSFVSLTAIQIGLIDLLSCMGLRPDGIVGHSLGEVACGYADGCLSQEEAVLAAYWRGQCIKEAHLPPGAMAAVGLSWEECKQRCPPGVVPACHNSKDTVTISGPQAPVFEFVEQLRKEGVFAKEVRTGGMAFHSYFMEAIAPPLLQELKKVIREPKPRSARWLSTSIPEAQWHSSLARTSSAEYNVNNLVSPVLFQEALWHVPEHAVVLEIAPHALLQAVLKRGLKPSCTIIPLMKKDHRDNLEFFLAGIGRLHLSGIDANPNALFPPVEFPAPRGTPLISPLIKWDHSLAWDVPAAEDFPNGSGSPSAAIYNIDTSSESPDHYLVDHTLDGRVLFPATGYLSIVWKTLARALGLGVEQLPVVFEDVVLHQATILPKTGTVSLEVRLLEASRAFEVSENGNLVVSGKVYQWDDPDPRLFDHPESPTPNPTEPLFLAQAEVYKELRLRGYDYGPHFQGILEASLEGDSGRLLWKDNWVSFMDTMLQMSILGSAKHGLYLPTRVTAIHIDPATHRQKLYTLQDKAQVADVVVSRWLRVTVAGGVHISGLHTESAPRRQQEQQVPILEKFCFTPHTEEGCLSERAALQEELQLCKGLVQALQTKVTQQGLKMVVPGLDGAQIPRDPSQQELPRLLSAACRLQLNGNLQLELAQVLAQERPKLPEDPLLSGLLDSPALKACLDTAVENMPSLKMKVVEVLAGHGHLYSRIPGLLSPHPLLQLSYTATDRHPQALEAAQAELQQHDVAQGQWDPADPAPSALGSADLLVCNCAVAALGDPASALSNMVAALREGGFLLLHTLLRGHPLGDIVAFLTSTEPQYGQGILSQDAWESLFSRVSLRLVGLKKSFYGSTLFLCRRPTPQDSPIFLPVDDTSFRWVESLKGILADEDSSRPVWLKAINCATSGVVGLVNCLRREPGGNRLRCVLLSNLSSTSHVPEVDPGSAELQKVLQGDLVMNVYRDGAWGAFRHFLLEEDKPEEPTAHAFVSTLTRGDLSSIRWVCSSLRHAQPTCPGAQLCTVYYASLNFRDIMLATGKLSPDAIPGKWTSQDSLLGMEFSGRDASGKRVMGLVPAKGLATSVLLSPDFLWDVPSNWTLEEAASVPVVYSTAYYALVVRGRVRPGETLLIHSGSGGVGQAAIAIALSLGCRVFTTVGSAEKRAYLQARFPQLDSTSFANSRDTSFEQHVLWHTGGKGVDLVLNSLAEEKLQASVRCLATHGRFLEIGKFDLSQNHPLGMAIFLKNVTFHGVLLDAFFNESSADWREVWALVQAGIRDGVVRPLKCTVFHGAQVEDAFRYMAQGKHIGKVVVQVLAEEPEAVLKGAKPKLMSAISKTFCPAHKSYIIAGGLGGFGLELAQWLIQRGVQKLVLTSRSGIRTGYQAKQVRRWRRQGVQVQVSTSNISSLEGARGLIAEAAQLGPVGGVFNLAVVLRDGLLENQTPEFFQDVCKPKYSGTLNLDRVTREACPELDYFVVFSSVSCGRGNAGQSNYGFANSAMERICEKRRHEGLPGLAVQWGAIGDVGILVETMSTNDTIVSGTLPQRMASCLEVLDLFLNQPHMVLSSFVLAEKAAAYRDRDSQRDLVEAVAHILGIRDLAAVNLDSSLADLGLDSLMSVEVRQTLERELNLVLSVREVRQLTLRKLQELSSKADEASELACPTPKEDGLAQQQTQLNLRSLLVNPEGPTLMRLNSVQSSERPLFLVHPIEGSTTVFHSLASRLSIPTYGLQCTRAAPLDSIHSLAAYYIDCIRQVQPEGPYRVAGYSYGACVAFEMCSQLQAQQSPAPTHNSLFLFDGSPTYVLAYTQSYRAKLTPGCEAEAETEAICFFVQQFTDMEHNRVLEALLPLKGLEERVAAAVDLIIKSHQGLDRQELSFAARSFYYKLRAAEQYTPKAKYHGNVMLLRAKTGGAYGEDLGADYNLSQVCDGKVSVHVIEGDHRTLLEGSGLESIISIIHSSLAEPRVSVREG

Row | SMILES | IC50 (FASN enzyme) | Brain (μM) at 2 h [1] | Plasma (μM) at 2 h [1] | [Brain]/[Plasma] at 2 h [1] | Brain (μM) at 8 h [1] | Plasma (μM) at 8 h [1] | [Brain]/[Plasma] at 8 h [1] | Brain (μM) at 2, 8 h (single value) [1] | Plasma (μM) at 2, 8 h (single value) [1] | Kp [1]
1 | C[C@H]1CN(C(=O)c2ccc(-c3nc4ccc(F)cc4o3)cc2)CCN1C(=O)C1(O)CC1 [Compound 1] | 100 to 1000 nM | 1.3 µM | 7.3 µM | 0.18 | 0.40 µM | 2.1 µM | 0.20 | – | – | –
2 | C[C@@H]1CN(C(=O)c2ccc(-c3nc4ccc(F)cc4o3)cc2)C[C@H](C)N1C(=O)C1(O)CC1 [Compound 2] | < 100 nM | 0.3 µM | 1.4 µM | 0.20 | 0.01 µM | 0.06 µM | 0.21 | – | – | –
3 | O=C(c1ccc(-c2nc3ccc(F)cc3o2)cc1)N1CCN(C(=O)C2(O)CC2)CC1 [Compound 3] | 100 to 1000 nM | 1.8 µM | 7.8 µM | 0.23 | 0.89 µM | 3.3 µM | 0.27 | – | – | –
4 | C[C@H]1CN(C(=O)c2ccc(-c3nc4ccc(F)cc4o3)cc2F)CCN1C(=O)C1(O)CC1 [Compound 4] | < 100 nM | 1.6 µM | 10.6 µM | 0.15 | 0.17 µM | 1.1 µM | 0.16 | – | – | –
5 | O=C(c1ccc(-c2nc3ccc(F)cc3o2)cc1F)N1CCN(C(=O)C2(O)CC2)CC1 [Compound 5] | 100 to 1000 nM | 1.4 µM | 8.4 µM | 0.17 | 0.62 µM | 3.3 µM | 0.19 | – | – | –
6 | O=C(c1ccc(-c2nc3ccc(F)cc3o2)cc1F)N1CCN(C(=O)[C@H]2CCCO2)CC1 [Compound 6] | 100 to 1000 nM | – | – | – | – | – | – | 0.042 µM | 0.396 µM | 0.105
7 | C[C@H]1CN(C(=O)c2ccc(-c3nc4ccc(F)cc4o3)cc2F)CCN1C(=O)C1(N)CC1 [Compound 7] | 100 to 1000 nM | – | – | – | – | – | – | 0.013 µM | 0.238 µM | 0.05
8 | C[C@@H]1CN(C(=O)c2ccc(-c3nc4ccc(F)cc4o3)cc2)C[C@H](C)N1C(=O)C1(N)CC1 [Compound 8] | 100 to 1000 nM | – | – | – | – | – | – | 0.038 µM | 0.309 µM | 0.12
9 | Cn1cnc2cc(-c3ccc(C(=O)N4CCN(C(=O)C5(O)CC5)CC4)c(F)c3)ccc21 [Compound 9] | < 100 nM | 0.03 µM | 5.2 µM | 0.006 | 0.007 µM | 0.6 µM | 0.012 | – | – | –
10 | C[C@H]1CN(C(=O)c2ccc(-c3ccc4c(c3)ncn4C)cc2F)CCN1C(=O)C1(O)CC1 [Compound 10] | < 100 nM | 0.04 µM | 4.4 µM | 0.007 | 0.004 µM | 1.0 µM | 0.004 | – | – | –
11 | C[C@H]1CN(C(=O)c2ccc(-c3ccc4c(c3)ncn4C)cc2)CCN1C(=O)C1(O)CC1 [Compound 11] | < 100 nM | 0.02 µM | 4.4 µM | 0.005 | 0.0 µM | 0.6 µM | 0.000 | – | – | –
12 | Cn1cnc2cc(-c3ccc(C(=O)N4CCN(C(=O)C5(O)CC5)CC4)cc3)ccc21 [Compound 12] | 100 to 1000 nM | 0.02 µM | 1.5 µM | 0.014 | 0.0 µM | 0.2 µM | 0.000 | – | – | –
13 | Cn1cc(-c2ccc(-c3ccc(C(=O)N4CCN(C(=O)C5(O)CC5)CC4)cc3)cc2)cn1 [Compound 13] | < 100 nM | 0.28 µM | 5.8 µM | 0.05 | 0.12 µM | 3.1 µM | 0.04 | – | – | –
